Values quoted from earlier work, collected in patent US9469654B2, “Bicyclic oxa-lactam kinase inhibitors” (PORTOLA PHARMACEUTICALS, INC., priority 2012, dated 2016).

Experiments:
[1] = tested on: lymphoma cell lines and primary human lymphoma samples
[2] = tested on: refractory NHL and chronic lymphocytic leukemia; settings: phase II clinical trial

- activity against Src kinase (Src kinsase): not against
SMILES: COc1cc(Nc2ncc(F)c(Nc3ccc4c(n3)NC(=O)C(C)(C)O4)n2)cc(OC)c1OC [Example R406]
- activity against JAK kinases (JAK kinases): active against
- apoptosis ([1]; lymphoma cell lines): resulting in apoptosis
- effect on BCR signaling ([1]; lymphoma cell lines and primary human lymphoma samples): attenuates BCR signaling
- clinical outcome [2]: favorable results
